For experiment [1], the system named is aged mice. The experiment can be described thus: Effect on the kidneys of aged mice (HE staining, hyalinization, marker expression). In kind it is in vivo, C57BL/6J. The conditions noted are these: 20-month-old aged mice, once a week for 3 months, versus Vehicle. How it is done:
Nutlin 3b was administered to C57BL/6J, 20-month-old aged mice once a week for 3 months. After 3 months, the mice were sacrificed, and HE staining and mRNA expression analysis of the renal tissue were performed. As a comparison subject, the renal tissue of young mice (C57BL/6J, 10-week old) and aged mice with no administration of nutlin 3b (Vehicle) were used.
Also, the increase in senescence markers and SASP markers induced in aged renal tissue was suppressed by nutlin 3b administration (Fig. 20-3).

Experiment [2] deals with fibrosis-related genes (Col1a2, Col5a2, Fibronectin, and Toropelastin). Put plainly: Expression of fibrosis-related mRNA in lung tissue of BLM pulmonary fibrosis model mice (real-time PCR). The following applies: lung tissue 21 days after 2.5 mg/kg bleomycin; 14, 20, and 24 mg/kg intraperitoneally 4 times a week for 2 weeks; versus solvent. In kind it is in vivo, ICR mice. How it is done: 2.5 mg/kg of bleomycin was intratracheally administered to 10- to 12-week old ICR mice. Starting 8 days after bleomycin administration, 14, 20, and 24 mg/kg of nutlin 3b or the solvent alone were intraperitoneally administered 4 times a week for 2 weeks. 21 days after bleomycin administration, mice in the nutlin 3b administration group or solvent administration group were sacrificed to sample their lung tissue. In the test, 3 mice in the nutlin 3b non-administration group (solvent only) and 3 mice in the nutlin 3b administration group were used. The same applies to the following tests. The collected lung tissue was immersed in a sufficient amount of RNAlater and stored at 4°C overnight. The next day, the lung tissue was removed from the RNAlater, and the total RNA was collected using TRIzole. Then, mRNA was reverse-transcribed using a ReverTra Ace qPCR RT kit to prepare cDNA. Real-time PCR was performed on the prepared cDNA using primers specific to fibrosis-related genes (Col1a2, Col5a2, Fibronectin, and Toropelastin).

Experiment [3] deals with BLM pulmonary fibrosis model mice. The experiment can be described thus: Pathological comparison: Masson's trichrome staining of lung tissue, quantification of fibrosis regions. In kind it is in vivo, ICR mice. The conditions noted are these: blue area quantified, 14, 20, and 24 mg/kg intraperitoneally 4 times a week for 2 weeks, day 21 after bleomycin. How it is done:
2.5 mg/kg of bleomycin was intratracheally administered to 10- to 12-week old ICR mice. Starting 8 days after bleomycin administration, 14, 20, and 24 mg/kg of nutlin 3b or the solvent alone were intraperitoneally administered 4 times a week for 2 weeks. 21 days after bleomycin administration, mice in the nutlin 3b administration group or solvent administration group were sacrificed to sample their lung tissue. The lung tissue was fixed by treatment with 4% paraformaldehyde for 48 hours. The fixed lung tissue was embedded in paraffin, and then sliced into 5 µm thin slices, and set on microscope slides. Masson's trichrome staining was performed on the thin slices of the lung tissue to evaluate fibrosis. Specifically, in Masson's trichrome staining, nuclei are stained black-brown with iron hematoxylin staining, cytoplasm is stained red with […], and collagen fibers are stained blue with aniline blue. Accordingly, to evaluate fibrosis, the stained image was separated into the three primary colors using ImageJ (image analysis software), and the area which stained blue was quantified as the fibrosis regions. The obtained signals of each group were expressed as relative values to the control group (PBS + PEG). The results of Masson's trichrome staining are shown in Fig. 17-1, and the quantification results of the fibrosis regions are shown in Fig. 17-2.

Experiment [4] relates to aged mice. The experiment can be described thus: Effect on the lungs of aged mice (HE staining and p21 antibody staining). In kind it is in vivo, C57BL/6J. The conditions noted are these: 20-month-old aged mice, once a week for 3 months; versus Vehicle. How it is done: Nutlin 3b was administered to C57BL/6J, 20-month-old aged mice once a week for 3 months. After 3 months, the mice were sacrificed, and HE staining and mRNA expression analysis of the lung tissue were performed. As a comparison subject, the lung tissue of young mice (C57BL/6J, 10-week old) and aged mice with no administration of nutlin 3b (Vehicle) were used.

Experiment [5] deals with BLM pulmonary fibrosis model mice. The experiment can be described thus: Survival rate in BLM pulmonary fibrosis model mice. The format is in vivo, C57BL6 mice. The conditions noted are these: 2.5 mg/kg bleomycin intratracheally; 20 mg/kg nutlin 3b intraperitoneally 4 times a week for 2 weeks from day 8; deaths within 21 days; versus solvent only. How it is done:
2.5 mg/kg of bleomycin was intratracheally administered to 10- to 12-week old C57BL6 mice. Starting 8 days after bleomycin administration, 20 mg/kg of nutlin 3b or the solvent alone was intraperitoneally administered 4 times a week for 2 weeks. The mice were checked for survival every day, and the number of mice that died within 21 days after bleomycin administration was counted. In this test, 6 mice in the nutlin 3b non-administration group (solvent only) and 7 mice in the nutlin 3b administration group were used. […] In the figure, 3B indicates nutlin 3b. The same applies to the following figures.

Experiment [6] has as its system FoxM1 and its downstream target genes (Plk1, Ccnb2, Aspm, and Cep55). Put plainly: Expression of FoxM1 and its downstream target genes in lung tissue of BLM pulmonary fibrosis model mice (real-time PCR). The format is in vivo, ICR mice. The following applies: lung tissue 21 days after 2.5 mg/kg bleomycin; 20 mg/kg intraperitoneally 4 times a week for 2 weeks; versus solvent. How it is done:
The influence of the nutlin 3b administration to FoxM1 target factors in bleomycin-induced pulmonary fibrosis was examined. Specifically, 2.5 mg/kg of bleomycin was intratracheally administered to 10- to 12-week old ICR mice. Starting 8 days after bleomycin administration, 20 mg/kg of nutlin 3b or the solvent alone was intraperitoneally administered 4 times a week for 2 weeks. 21 days after bleomycin administration, mice in the nutlin 3b administration group and the solvent administration group were sacrificed to sample their lung tissue. In the test, 3 mice in the nutlin 3b non-administration group (solvent only) and 3 mice in the nutlin 3b administration group were used. The collected lung tissue was immersed in a sufficient amount of RNAlater and stored at 4°C overnight. The next day, the lung tissue was removed from the RNAlater, and the total RNA was collected using TRIzole. Then, mRNA was reverse-transcribed using a ReverTra Ace qPCR RT kit to prepare cDNA. Real-time PCR was performed on the prepared cDNA using primers specific to FoxM1 and its downstream target genes (Plk1, Ccnb2, Aspm, and Cep55).

The subject of a further experiment is PGAM-Chk1 binding. The experiment can be described thus: PGAM-Chk1 binding inhibition HTP screening using a Cell-base NanoBiT system (primary screening). The format is cell-based. From the text:
Examples of a preferred method for measuring the binding level between PGAM and Chk1 include, in addition to the above, a method that uses PGAM and Chk1 labeled with tags that can bind to each other, and specific examples thereof include the following method that uses a Nanobit system. In Nanobit, a large subunit and a small subunit of a photoprotein prepared based on a luciferase are attached as tags to PGAM and Chk1, respectively. These tags have structures that can bind to each other. […] By measuring the intensity of the luminescence signal at this time, the binding level can be measured with high sensitivity and high quantitativity.
PGAM-Chk1 binding inhibition HTP (high-throughput) screening using a Cell-base NanoBiT system was carried out. Specifically, the screening was carried out by the following method. In NanoBiT, a large subunit and a small subunit of a photoprotein prepared based on a luciferase are attached as tags to PGAM and Chk1, respectively. These tags have structures that can bind to each other. […] By measuring the intensity of the luminescence signal at this time, the binding level can be measured with high sensitivity and high quantitativity. […] Therefore, a substance that inhibits the binding of PGAM and Chk1 was searched from the drug library, with the decrease in the luminescence signal as an indicator. […]

On to `COc1ccc(C2=N[C@H](c3ccc(Cl)cc3)[C@H](c3ccc(Cl)cc3)N2C(=O)N2CCNC(=O)C2)c(OC(C)C)c1` [nutlin 3b, Nutlin-3b], for which the “increase in senescence markers and SASP markers induced in aged renal tissue” value with aged mice [1] is listed as “suppressed”. In addition, in the experiment on aged mice [1] (HE staining of renal tissue), the “glomerular hyalinization (four-level score)” value is listed as “significant improvement in hyalinization” and the “interstitial hyalinization positive rate” value was “significant improvement in hyalinization”. In experiment [2], the “expression of the fibrosis-related genes” value is reported as “decreased”. The “fibrosis areas induced by bleomycin in the lungs” value in experiment [3] is on record as “smaller than those of the control group”. In addition, in the experiment with aged mice [4], the “p21-positive cells in aged lung tissue” value is “significantly suppressed”. The survival rate result in experiment [5] is reported as “improved the survival rate”. Also, the “expression of FoxM1 target genes” value in experiment [6] was “suppression of the expression of FoxM1 target genes was observed”.
Regarding nutlin, the “luminescence signal (binding level between PGAM and Chk1)” value in the experiment with PGAM-Chk1 binding is listed as “luminescence signal decreases”.

Source of the values: patent EP4640238A1, “THERAPEUTIC AGENT FOR PULMONARY DISEASE, HEPATIC DISEASE OR RENAL DISEASE, WHICH CONTAINS PGAM-CHK1 BINDING INHIBITOR” (Kyoto University, priority 2022, dated 2024).
